Data: patent US9164084B2, “Methods for determining aggressiveness of a cancer and treatment thereof” (Purdue Research Foundation, priority 2012, dated 2015)
Entries after “also recorded” stand apart in the source; their conditions may differ.

Legend:
[1] = test system: PC-3 cells; assay: Cell growth / viable cell number of PC-3 cells; format: cell-based, human
Protocol: (§1) Because cholesteryl ester accumulation was found in PCa but not in normal prostate, how cell viability could be affected by regulating cholesteryl ester levels with the ACAT inhibitor Avasimibe was evaluated. […] The inhibitory effect of Avasimibe on the growth of PC-3 and LNCaP-HP cells was considerably greater than that in cholesteryl ester poor cancer cells including LNCaP-LP, DU145, and C4-2.

[2] = test system: normal prostate RWPE1 cell; assay: Toxic effect on normal prostate RWPE1 cell; format: cell-based; details: at the same doses
[3] = test system: PC-3 cells; assay: Flow cytometry analysis of cell cycle and apoptosis in PC-3 cells; format: cell-based, human
[4] = test system: PANC-1 cells; assay: Cell viability (ATP level) of PANC-1 cells; format: cell-based; details: 7.5 μM for various periods
Protocol: (§2) The cells were treated with […] (control) or 7.5 μM avasimibe for various periods. Then cells were lysed and ATP level were quantified to determine the number of viable cells.
(§3) As the ACAT-1 inhibitor, avasimibe, effectively removed lipid droplet or cholesteryl ester accumulation in pancreatic cancer cells, the use of avasimibe as a chemotherapy agent for pancreatic cancer was explored. The effects of avasimibe on cell viability in BxPC3 and PANC-1 cells were examined.

[5] = test system: BxPC3 cells; assay: Cell viability (ATP level) of BxPC3 cells; format: cell-based; details: 7.5 μM for various periods
Protocol: as §2, §3

[6] = test system: BxPC3 cells; assay: CRS microscopy of lipid droplets in BxPC3 cells; format: cell-based; details: 7.5 μM for 24 h (FIG. 48)
Source text: (§4) Coherent Raman scattering (CRS) microscopy is a label-free imaging technique that is highly sensitive to C—H bond abundant structures such as membranes and lipid droplets. By matching the C—H bond stretching vibration mode at 2850 cm^−1, lipid distribution was imaged in human pancreatic cancer (n=10) and normal tissues (n=10) provided by IU School of Medicine. A remarkable amount of lipid droplets in all pancreatic cancer tissues was observed (FIG. 47, Panel B). […] Furthermore, by coupling a spectrometer to the CRS microscope, the devices was able to dissect the composition of individual lipid droplets through confocal Raman spectral analysis. […] Using emulsified mixtures of cholesteryl oleate and glyceryl trioleate (Sigma), it was verified that height ratio of the Raman peak at 702 cm^−1 the Raman peak at 1442 cm^−1 (CH^2 bending vibration mode) is linearly proportional to molar percentage of cholesteryl ester (FIG. 47, Panel D) out of the total neutral lipids. Based on this calibration curve, it was concluded that over 80% of neutral lipids in human pancreatic cancer tissues are cholesteryl ester. In order to understand how lipids accumulate in pancreatic cancer, several in vitro studies using two common pancreatic cancer cell lines, BxPC3 and PANC-1 were performed. […]

[7] = test system: PC-3 cells; assay: Immunoblotting of SREBP and LDLr in PC-3 cells; format: cell-based, human
Source text: It has been shown that mTOR plays a key role in regulating the function of sterol regulatory element-binding proteins (SREBPs) which control lipid and cholesterol homeostasis. Specifically, when cellular sterol levels decrease, SREBP-1a and/or -2 precursors are cleaved to activate the expression of genes involved in de novo cholesterol synthesis and LDL-cholesterol uptake. […] Similar results for on LNCaP-HP cells were obtained.
(§5) Finally, it was investigated whether Avasimibe-mediated suppression of tumor growth is associated with the regulation of cholesterol metabolism machinery. It was hypothesized that abrogating ACAT activity would up-regulate cellular level of free cholesterol and then down-regulate SREBP and LDLr in PCa cells (FIG. 40). […] To provide an explanation for enhanced uptake of LDL and then storage of excess cholesterol in the form of cholesteryl ester in aggressive prostate cancer, it was noticed that LDL is the primary carrier of essential polyunsaturated fatty acid including arachidonic acid (AA). Inside cells, AA is converted to a wide range of eicosanoids, which have been implicated in various pathological processes such as inflammation and cancer.

[8] = test system: pancreatic cancer cells (BxPC3 and PANC-1); assay: Western blot of pancreatic cancer cells before and after avasimibe treatment; format: cell-based; details: pancreatic cancer cells (FIG. 49)
Protocol: In order to understand how lipids accumulate in pancreatic cancer, several in vitro studies using two common pancreatic cancer cell lines, BxPC3 and PANC-1 were performed. Since ACAT is the enzyme responsible for the conversion from cholesterol to cholesteryl ester the effects of inhibiting ACAT-1, the universally expressed isoform, on lipid metabolism in pancreatic cancer cells were first examined. […] To explore the molecular mechanism, western blot of the cells before and after avasimibe treatment were performed.

[9] = test system: PC-3 xenografts; assay: Mice bearing PC-3 xenografts treated with Avasimibe; format: in vivo
Protocol: To test the potential of using Avasimibe to treat advanced PCa in vivo, Avasimibe (15 mg/kg body weight by i.p. injection) was administered to the mice bearing PC-3 xenografts. Daily treatment of mice with the Avasimibe inhibited the growth of PC-3 tumors by ˜2 folds (FIG. 33), and induced ˜40% reduction in tumor weight by the end of 30-day treatment (FIG. 34).

[10] = test system: LNCaP-HP cells; assay: Spectroscopic (SRL) imaging and Raman spectral analysis of lipid droplets in LNCaP-HP cells; format: cell-based, human; details: for cholesteryl ester accumulation: ACAT inhibitor treatment
Protocol: The LNCaP-HP cells were treated with an ACAT inhibitor, avasimibe (structure shown in FIG. 13, Panel D), at 10 μM for 2 days.
(§6) A broad spectrum of human prostate epithelial cells has been examined. […] Loss of the tumor suppressor PTEN has been widely observed in both localized and metastatic prostate cancer and correlated with high Gleason grade. With loss of PTEN, PI3K signaling is hyper-activated, which, in turn, leads to AKT activation. […] AKT mediates the phosphorylation and activation of mTOR complex 1 (mTORC1) which plays critical roles in the regulation of protein and lipid biosynthesis. To determine whether the PI3K/AKT/mTOR pathway regulates cholesteryl ester accumulation, both types of cholesteryl ester rich cell lines, PC-3 and high passage LNCaP (LNCaP-HP), were treated with LY294002 (PI3K inhibitor), MK2206 (AKT inhibitor), and Rapamycin (mTOR inhibitor), respectively.
(§7) It is well known that LDL enters a cell via LDL receptor (LDLr) and traffics to the late endosome and lysosome where it is hydrolyzed to free fatty acids and free cholesterol. The excess free cholesterol together with the fatty acyl CoA substrate is then converted to cholesteryl ester by Acyl coenzyme A: cholesterol acyltransferase (ACAT) and stored in lipid droplets. Thus, cells were separately treated with Avasimibe and Sandoz 58-035, two different ACAT inhibitors. […] The significant reduction of cholesteryl ester accumulation upon Avasimibe treatment was further confirmed by an independent biochemical assay of cell lysates.

[11] = test system: LNCaP-HP cells; assay: Cellular uptake of DiI-labeled LDL in LNCaP-HP cells; format: cell-based, human; details: 2-day treatment
Source text: as §5

[12] = test system: LNCaP-HP cells; assay: Immunoblotting of SREBP and LDLr in LNCaP-HP cells; format: cell-based, human
Source text: as §5

[13] = test system: PC-3 cells; assay: Standard biochemical assay of CE and free cholesterol in PC-3; format: cell-based, human; details: PC-3, 2-day treatment
Source text: as §7, §5

[14] = test system: PC-3 cells; assay: Spectroscopic imaging and Raman spectral analysis of lipid droplets in PC-3 cells; format: cell-based, human; details: for cholesteryl ester accumulation: ACAT inhibitor treatment
Source text: as §6
(§8) Because cholesterol can be either de novo synthesized via the mevalonate pathway or taken up from exogenous lipoproteins, the source of cholesterol used for cholesteryl ester accumulation was investigated. PC-3 cell were first treated with Simvastatin, an inhibitor of 3-hydroxy-3-methylglutaryl coenzyme A HMG-CoA reductase, the rate-limiting enzyme of the mevalonate pathway. […] In contrast, after treating cells with lipoprotein-deficient serum (LPDS), lipid droplets nearly disappeared in cholesteryl ester rich PC-3 and LNCaP-HP cells (FIG. 29, Panel A), but remained the same amount in cholesteryl ester poor cells including LNCaP-LP, DU145, and C4-2. Re-addition of low-density lipoprotein (LDL) into the LPDS medium restored lipid droplets and cholesteryl ester in both PC-3 and LNCaP-HP cells (FIG. 29, Panel B).
as §7

[15] = test system: LNCaP-HP cells; assay: Cell growth / viable cell number of LNCaP-HP cells; format: cell-based, human; details: for proliferation (growth) rate, MTT assay: treatment started at day 1 (FIG. 14)
Protocol: To study the impact of cholesteryl ester storage on tumor growth, the growth rate of LNCaP-HP and LNCaP-LP cells were measured using MTT assay (a colorimetric assay for measuring number of cells present, where the color is proportional to the number of cells).
as §1

[16] = test system: PANC-1 cells; assay: CRS microscopy and Raman spectroscopy of cholesteryl ester in PANC-1 cells; format: cell-based; details: 7.5 μM for 24 h (FIG. 48)
Source text: as §4

[17] = test system: PC-3 cells; assay: Cellular uptake of DiI-labeled LDL in PC-3 cells; format: cell-based, human; details: PC-3, 2-day treatment
Source text: as §8
Finally, it was investigated whether Avasimibe-mediated suppression of tumor growth is associated with the regulation of cholesterol metabolism machinery. It was hypothesized that abrogating ACAT activity would up-regulate cellular level of free cholesterol and then down-regulate SREBP and LDLr in PCa cells (FIG. 40). […]

[18] = test system: PC-3 cells; assay: LC-MS of arachidonic acid (AA) in PC-3 cell lysates; format: cell-based, human
Source text: as §5

For `CCCCC/C=C\C/C=C\C/C=C\C/C=C\CCCC(=O)O` [AA, arachidonic acid], the “growth of PC-3 cells” value ([1]; added LDL or AA (FIG. 46)) was “promoted the growth of PC-3 cells in a dose-dependent manner”.

`CC(C)c1cc(C(C)C)c(CC(=O)NS(=O)(=O)Oc2c(C(C)C)cccc2C(C)C)c(C(C)C)c1` [Avasimibe, avasimibe] was tested, and the “toxic effect on normal prostate cell” value [2] was “no toxic effect”, the “G2/M phase population compared to control group” value [3] was 2 times smaller and the “sub G0/G1 population compared to control group” value [3] was about 3 times larger. For the same molecule, the “cell viability (ATP level)” value [4] was “significantly reduced cell viability”, the “cell viability (ATP level)” value ([4]; listed as avasimibe) was “significantly reduced the viability; also recorded: dramatically reduced the cell viability” and the “cell viability (ATP level)” value [5] was “significantly reduced cell viability”. For the same molecule, the “cell viability (ATP level)” value ([5]; listed as avasimibe) was “significantly reduced the viability; also recorded: dramatically reduced the cell viability”, the lipid droplet amount [6] was “reduced lipid droplet amount” and the lipid droplet amount ([6]; listed as avasimibe) was “reduced the lipid droplet amount; also recorded: significantly reduced the amount of lipid droplets”. The “LDLr level (immunoblot)” value [7] was “down-regulation”, the “SREBP-1 level (immunoblot)” value [7] was “down-regulation” and the “HMGCoA reductase level (western blot)” value [8] was “significantly reduced the level of HMGCoA reductase”. The “HMGCoA reductase level (western blot)” value ([8]; listed as avasimibe) was “reduced the expression of HMGCoA reductase”, the “LDL receptor level (western blot)” value ([8]; listed as avasimibe) was “not affected” and the “increase of apoptosis (TUNEL IHC)” value ([9]; PC-3 tumor) was about 2 folds. For the same molecule, the “reduction of proliferation (Ki67 IHC)” value ([9]; PC-3 tumor) was about 70%, the “cholesteryl ester content in PC-3 tumor (spectroscopic imaging of extracted tissues)” value ([9]; compared to vehicle-treated) was “significantly dropped” and the “tumor size compared to controls” value ([9]; mice (FIG. 33)) was “decreased tumor size”. The “body weight over the course of treatment” value ([9]; mice (FIG. 36)) was “remained steady”, the “pathological review of heart, kidney, liver, lung, and spleen” value ([9]; mice receiving Avasimibe) was “no signs of toxicity” and the “appearance of harvested tumors” value ([9]; mice, 15 mg/kg i.p. daily) was “less bloody in appearance”. The “reduction in tumor weight” value ([9]; mice, 15 mg/kg i.p. daily, end of 30-day treatment) was about 40%, the “inhibition of growth of PC-3 tumors” value ([9]; mice, 15 mg/kg i.p., daily treatment) was about 2 folds and the “general toxicity (animal behavior, body weight)” value ([9]; mouse, in vivo, ip, 15 mg/kg) was “did not cause general toxicity”. For the same molecule, the lipid droplet amount [10] was “remaining unchanged”, the “accumulation of cholesteryl ester in lipid droplets (702 cm^-1 Raman peak)” value ([10]; 10 μM for 2 days) was “completely blocked the accumulation of CHOLESTERYL ESTER” and the cell morphology ([10]; 10 μM for 2 days) was “reversed the cell morphology to that of LNCaP-LP cells”. For the same molecule, the cholesteryl ester accumulation [10] was “effectively suppressed cholesteryl ester accumulation”, the “uptake of DiI-labeled LDL” value [11] was “drastically inhibited LDL uptake” and the “LDLr level (immunoblot)” value [12] was “down-regulation”. For the same molecule, the “SREBP-2 level (immunoblot)” value [12] was “down-regulation”, the “level of CE” value [13] was “reduced the level of CE” and the “level of free cholesterol” value [13] was “slightly increased the level of free cholesterol”. For the same molecule, the lipid droplet amount [14] was “remaining unchanged”, the cholesteryl ester accumulation [14] was “effectively suppressed cholesteryl ester accumulation” and the IC50 ([15]; Homo sapiens, 72 h, LNCaP-HP cell, 3 days) was 9.64 µM. For the same molecule, the cytotoxicity at 7.5 µM ([15]; Homo sapiens, 72 h, LNCaP-HP cells, 3 days of 7.5 μM, read-out: reduction in viable cell number) was about 55%, the “proliferation (viable cell number)” value ([15]; LNCaP-HP cells (FIG. 31)) was “significantly hampered the proliferation” and the “proliferation (growth) rate, MTT assay” value ([15]; LNCaP-HP cells) was “significantly slowed down the proliferate rate”. The “proliferation (growth) rate, MTT assay” value ([15]; LNCaP-HP cells, listed as avasimide) was “significantly reduced growth rate”, the IC50 ([1]; Homo sapiens, 72 h, PC-3 cell, 3 days) was 7.32 µM and the cytotoxicity at 7.5 µM ([1]; Homo sapiens, 72 h, PC-3 cells, 3 days of 7.5 μM, read-out: reduction in viable cell number) was about 48%. The “proliferation (viable cell number)” value ([1]; PC-3 cells (FIG. 31)) was “significantly hampered the proliferation”, the cholesteryl ester accumulation [16] was “blocked cholesteryl ester accumulation” and the cholesteryl ester accumulation ([16]; listed as avasimibe) was “eliminated cholesteryl ester; also recorded: blocked cholesteryl ester accumulation”. The “uptake of DiI-labeled LDL” value [17] was “drastically inhibited LDL uptake” and the “level of AA (arachidonic acid)” value [18] was “significantly reduced the level of AA”.

`NC1(c2ccc(-c3nc4ccn5c(=O)[nH]nc5c4cc3-c3ccccc3)cc2)CCC1` [MK2206] was tested, and the “autofluorescent granules indicative of autophagy” value [10] was “induced massive accumulation of autofluorescent granules”, the lipid droplet amount [10] was “radically removed lipid droplets” and the “autofluorescent granules indicative of autophagy” value [14] was “induced massive accumulation of autofluorescent granules”. For the same molecule, the lipid droplet amount [14] was “radically removed lipid droplets”.

With `CCCCCCCCCC[Si](C)(C)CCC(=O)NC(Cc1ccc(C)cc1)c1ccccc1` (centres unmarked) [Sandoz 58-035] the lipid droplet amount [10] was “remaining unchanged”, the cholesteryl ester accumulation [10] was “effectively suppressed cholesteryl ester accumulation” and the lipid droplet amount [14] was “remaining unchanged”. For the same molecule, the cholesteryl ester accumulation [14] was “effectively suppressed cholesteryl ester accumulation”.
